In the NIST ThermoML archive (doi:10.1021/je900799e):

Test: molar heat capacity at constant pressure
Conditions: Liquid, metal-bellows calorimeter

F/C=C/C(F)(F)F [trans-1,3,3,3-tetrafluoropropene]
molar heat capacity at constant pressure [J/K/mol]
Conditions	310 K	320 K	330 K	340 K	350 K	360 K	370 K
2000 kPa	165.36	168.78	175.62	188.17	206.42	–	–
3000 kPa	160.8	164.22	169.92	179.05	192.73	214.4	272.56
4000 kPa	157.38	160.8	166.5	169.92	182.47	195.01	224.66
5000 kPa	155.1	158.52	161.94	164.22	174.48	183.61	204.13
